Source: ChEMBL document CHEMBL4152353, “Synthesis of DNA interactive C3-trans-cinnamide linked β-carboline conjugates as potential cytotoxic and DNA topoisomerase I inhibitors” (Bioorg Med Chem, 2018)
Active and inactive are the calls of the source. The calls are words filed in the database; no cut-off is given here.

Legend:
[1] = tested on: Calf thymus DNA; assay: Binding affinity to calf thymus DNA assessed as hypochromic shift at 50 uM by UV-Vis absorption spectrophotometric method; type: nucleic-acid assay; settings: Bos taurus
[2] = tested on: MCF7; assay: Cytotoxicity against human MCF7 cells assessed as cell death at 1 uM after 24 hrs by propidium iodide/Hoechst 33342 staining based fluorescence microscopic analysis; type: functional
[3] = tested on: A549; assay: Cytotoxicity against human A549 cells after 48 hrs by MTT assay; type: functional, cell-based; settings: A549, 48 h
[4] = tested on: MCF7; assay: Cytotoxicity against human MCF7 cells after 48 hrs by MTT assay; type: functional, cell-based; settings: MCF7, 48 h
[5] = tested on: B16; assay: Cytotoxicity against mouse B16 cells after 48 hrs by MTT assay; type: functional, cell-based; settings: B16, 48 h
[6] = tested on: HeLa; assay: Cytotoxicity against human HeLa cells after 48 hrs by MTT assay; type: functional, cell-based
[7] = tested on: NIH3T3; assay: Cytotoxicity against mouse NIH/3T3 cells after 48 hrs by MTT assay; type: cell-based; settings: NIH3T3, 48 h
[8] = tested on: MCF7; assay: Cell cycle arrest in human MCF7 cells assessed as accumulation at subG1 phase at 0.5 uM after 48 hrs by propidium iodide staining based flow cytometry (reference value: 3.04%); type: functional
[9] = tested on: MCF7; assay: Cell cycle arrest in human MCF7 cells assessed as accumulation at subG1 phase at 1 uM after 48 hrs by propidium iodide staining based flow cytometry (reference value: 3.04%); type: functional
[10] = tested on: MCF7; assay: Cell cycle arrest in human MCF7 cells assessed as accumulation at G1 phase at 0.5 uM after 48 hrs by propidium iodide staining based flow cytometry (reference value: 45.98%); type: functional
[11] = tested on: MCF7; assay: Cell cycle arrest in human MCF7 cells assessed as accumulation at G1 phase at 1 uM after 48 hrs by propidium iodide staining based flow cytometry (reference value: 45.98%); type: functional
[12] = tested on: MCF7; assay: Cell cycle arrest in human MCF7 cells assessed as accumulation at S-phase at 0.5 uM after 48 hrs by propidium iodide staining based flow cytometry (reference value: 15.64%); type: functional
[13] = tested on: MCF7; assay: Cell cycle arrest in human MCF7 cells assessed as accumulation at S-phase at 1 uM after 48 hrs by propidium iodide staining based flow cytometry (reference value: 15.64%); type: functional
[14] = tested on: MCF7; assay: Cell cycle arrest in human MCF7 cells assessed as accumulation at G2/M-phase at 0.5 uM after 48 hrs by propidium iodide staining based flow cytometry (reference value: 33.65%); type: functional
[15] = tested on: MCF7; assay: Cell cycle arrest in human MCF7 cells assessed as accumulation at G2/M-phase at 1 uM after 48 hrs by propidium iodide staining based flow cytometry (reference value: 33.65%); type: functional
[16] = tested on: MCF7; assay: Induction of apoptosis in human MCF7 cells assessed as increase in number of wrinkled cells at 1 uM after 48 hrs by Hoechst 33342 staining based confocal microscopic analysis; type: functional, cell-based
[17] = tested on: MCF7; assay: Induction of apoptosis in human MCF7 cells assessed as DNA fragmentation at 1 uM after 48 hrs by Hoechst 33342 staining based confocal microscopic analysis; type: functional, cell-based
[18] = tested on: NIH3T3; assay: Cytotoxicity against mouse NIH/3T3 cells assessed as cell death at 1 uM after 24 hrs by propidium iodide/Hoechst 33342 staining based fluorescence microscopic analysis; settings: nih3t3, 24 h
[19] = tested on: Calf thymus DNA; assay: Binding affinity to calf thymus DNA assessed as maximum absorption peak at 50 uM by UV-Vis absorption spectrophotometric method; type: nucleic-acid assay; settings: Bos taurus
[20] = tested on: Calf thymus DNA; assay: Binding affinity to calf thymus DNA at 50 uM by UV-Vis absorption spectrophotometric method; type: nucleic-acid assay; settings: Bos taurus
[21] = tested on: Calf thymus DNA; assay: Binding affinity to calf thymus DNA assessed as fluorescence quenching at 10 uM by spectrofluorimetric method; type: nucleic-acid assay; settings: Bos taurus
[22] = tested on: Calf thymus DNA; assay: Binding affinity to calf thymus DNA assessed as DNA winding at 1:1 to 1:2 ratio of DNA to compound by circular dichroism analysis; type: nucleic-acid assay; settings: Bos taurus
[23] = tested on: Calf thymus DNA; assay: Binding affinity to calf thymus DNA assessed as increase in viscosity at 15 uM by viscometric method; type: nucleic-acid assay; settings: Bos taurus
[24] = biological target: T1, Topoisomerase I (Bos taurus, UniProt Q2HPH0); assay: Inhibition of calf thymus topoisomerase 1-mediated relaxation of supercoiled pBR322 DNA measured after 30 mins by agarose gel electrophoresis method
T1 sequence (Q2HPH0 whole entry): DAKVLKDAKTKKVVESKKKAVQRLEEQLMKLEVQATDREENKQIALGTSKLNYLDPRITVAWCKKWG

[25] = tested on: MCF7; assay: Induction of apoptosis in human MCF7 cells assessed as viable cells at 0.5 uM after 48 hrs by Annexin-V-FITC/propidium iodide staining based flow cytometry (reference value: 96.18%); type: functional; settings: MCF7, 48 h, read-out: Activity
[26] = tested on: MCF7; assay: Induction of apoptosis in human MCF7 cells assessed as early apoptotic cells at 0.5 uM after 48 hrs by Annexin-V-FITC/propidium iodide staining based flow cytometry (reference value: 0.09%); type: functional
[27] = tested on: MCF7; assay: Induction of apoptosis in human MCF7 cells assessed as late apoptotic cells at 0.5 uM after 48 hrs by Annexin-V-FITC/propidium iodide staining based flow cytometry (reference value: 0.06%); type: functional
[28] = tested on: MCF7; assay: Induction of apoptosis in human MCF7 cells assessed as necrotic cells at 0.5 uM after 48 hrs by Annexin-V-FITC/propidium iodide staining based flow cytometry (reference value: 3.67%); type: functional
[29] = tested on: MCF7; assay: Induction of apoptosis in human MCF7 cells assessed as viable cells at 1 uM after 48 hrs by Annexin-V-FITC/propidium iodide staining based flow cytometry (reference value: 96.18%); type: functional; settings: MCF7, 48 h, read-out: Activity
[30] = tested on: MCF7; assay: Induction of apoptosis in human MCF7 cells assessed as early apoptotic cells at 1 uM after 48 hrs by Annexin-V-FITC/propidium iodide staining based flow cytometry (reference value: 0.09%); type: functional
[31] = tested on: MCF7; assay: Induction of apoptosis in human MCF7 cells assessed as late apoptotic cells at 1 uM after 48 hrs by Annexin-V-FITC/propidium iodide staining based flow cytometry (reference value: 0.06%); type: functional
[32] = tested on: MCF7; assay: Induction of apoptosis in human MCF7 cells assessed as necrotic cells at 1 uM after 48 hrs by Annexin-V-FITC/propidium iodide staining based flow cytometry (reference value: 3.67%); type: functional

COc1ccc(-c2nc(CNC(=O)/C=C/c3ccc(Cl)cc3)cc3c2[nH]c2ccccc23)cc1
Activity [1]: 6 nm
Activity [2]: Active
IC50 [3]: 18.9 nM
IC50 [4]: 14.1 nM
IC50 [5]: 16.6 nM
IC50 [6]: 21.6 nM
IC50 [7]: 38.3 nM
Activity [8]: 5.4%
Activity [9]: 2.97%
Activity [10]: 42.32%
Activity [11]: 42.38%
Activity [12]: 17.6%
Activity [13]: 16.72%
Activity [14]: 33.1%
Activity [15]: 37.42%
Activity [16]: Active
Activity [17]: Active
Activity [18]: Non-Toxic
Activity [19]: 287 to 369 nm
K [20]: 3 ×10⁵ /M
Activity [21]: Active
Activity [22]: Active
Activity [23]: Active
IC50 [24]: 14 nM
viability at 0.5 µM [25]: 91.2%
Activity [26]: 6.65%
Activity [27]: 0.81%
Activity [28]: 1.29%
viability at 1 µM [29]: 84.8%
Activity [30]: 6.69%
Activity [31]: 2.43%
Activity [32]: 6.04%

COc1ccc(-c2nc(CNC(=O)/C=C/c3cccc(O)c3)cc3c2[nH]c2ccccc23)cc1
Activity [1]: inactive
Activity [2]: Active
IC50 [3]: 18.9 nM
IC50 [4]: 13.8 nM
IC50 [5]: 16.3 nM
IC50 [6]: 22.3 nM
IC50 [7]: 37.2 nM
Activity [8]: 4.61%
Activity [9]: 4.32%
Activity [10]: 46.11%
Activity [11]: 40.12%
Activity [12]: 16.81%
Activity [13]: 16.29%
Activity [14]: 32.46%
Activity [15]: 39.25%
Activity [16]: Active
Activity [17]: Active
Activity [18]: Non-Toxic
Activity [19]: 287 to 369 nm
K [20]: 1 ×10³ /M
Activity [21]: Active
Activity [22]: Active
Activity [23]: Active
IC50 [24]: 14 nM
viability at 0.5 µM [25]: 81.3%
Activity [26]: 9.75%
Activity [27]: 2.5%
Activity [28]: 6.45%
viability at 1 µM [29]: 77.3%
Activity [30]: 9.46%
Activity [31]: 3.69%
Activity [32]: 9.55%
